Results from US20250198442A1, “GAMMA POLYGLUTAMATED PEMETREXED AND USES THEREOF” (L.E.A.F. HOLDINGS GROUP LLC, priority 2020, published 2025).

Columns and labels:
[1] = test system: NCI H2342 non-small cell lung cancer (NSCLC), adenocarcinoma subtype; assay: CellTiter-Glo cell viability dose response, NCI H2342; assay type: cell-based, human; settings: H2342, 48 hours of treatment, rank among test articles
Procedure: (§1) The CTG assay uses luciferase as a readout.
(§2) Luciferase luminescence were recorded for each well.

HT-29 (colon cancer) = assay: CellTiter-Glo cell viability dose response, HT-29; assay type: cell-based, human; settings: HT-29, 48 hours, rank among test articles
Procedure: as §1, §2

AML12 liver cells = assay: Toxicity to AML12 liver cells; assay type: cell-based; settings: all doses studied (16 to 128 nM), 48 hours
Source text: (§3) Methodologies used for cell line AML12 (non-cancerous liver cells) and CCD841 (non-cancerous colon epithelial cells) are similar to the methods used for cancer cells.

[2] = test system: CCD841 colon epithelium cells; assay: Toxicity to CCD841 colon epithelium cells; assay type: cell-based; settings: 16 nM, 32 nM, 64 nM and 128 nM, 48 hours
Source text: as §3

## Nc1nc(=O)c2c(CCc3ccc(C(=O)N[C@@H](CCC(=O)N[C@@H](CCC(=O)N[C@@H](CCC(=O)N[C@@H](CCC(=O)N[C@@H](CCC(=O)N[C@@H](CCC(=O)O)C(=O)O)C(=O)O)C(=O)O)C(=O)O)C(=O)O)C(=O)O)cc3)c[nH]c2[nH]1 [gG6, pemetrexed L-gamma hexaglutamate]
[1]
  potency as measured by IC50: least potent
HT-29 (colon cancer)
  potency (cell viability): least potent

## Nc1nc2[nH]cc(CCc3ccc(C(=O)N[C@@H](CCC(=O)O)C(=O)O)cc3)c2c(=O)[nH]1 [pemetrexed]
AML12 liver cells
  reduction in the AML12 liver cell counts: approximately 40%
[2]
  decrease in the number of CCD841 colon epithelium cells: ≥ 50%
